Laboratory results as given in publication PMC7250897, “UDP-glucosyltransferase regulates grain size and abiotic stress tolerance associated with metabolic flux redirection in rice” (Nature Communications, 2020).

Tests used:
GSA1^WYJ [1] = molecular target: T1, GSA1^WYJ (Oryza sativa, UniProt Q9AUV3, A246V); assay: HPLC glucosyltransferase assay, product peak area; conditions: 250 μM acceptor, 1.5 mM UDP-glucose, 10 mM MgCl2, glycine-NaOH pH 8.6, 37 °C, 2 h
T1 construct: gene Os03g0757500; full-length cDNA in pET21a (NdeI/NotI), E. coli BL21(DE3) pLysS, crude extract; WYJ allele A246, A349
T1 sequence (Q9AUV3 1-457 A246V): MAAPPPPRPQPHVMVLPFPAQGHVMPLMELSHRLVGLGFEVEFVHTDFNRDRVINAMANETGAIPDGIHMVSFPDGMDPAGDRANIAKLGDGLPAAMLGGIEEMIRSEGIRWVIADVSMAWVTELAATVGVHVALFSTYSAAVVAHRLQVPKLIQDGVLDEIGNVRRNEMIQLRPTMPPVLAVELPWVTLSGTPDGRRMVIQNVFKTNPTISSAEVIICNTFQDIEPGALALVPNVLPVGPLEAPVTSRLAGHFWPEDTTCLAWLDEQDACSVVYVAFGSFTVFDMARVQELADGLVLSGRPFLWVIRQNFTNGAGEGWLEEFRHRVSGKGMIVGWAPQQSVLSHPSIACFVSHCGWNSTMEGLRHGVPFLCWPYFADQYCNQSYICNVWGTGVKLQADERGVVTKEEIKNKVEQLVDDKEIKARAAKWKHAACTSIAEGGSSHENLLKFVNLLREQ

GSA1^WYJ [2] = molecular target: T2, GSA1^WYJ (Oryza sativa, UniProt Q9AUV3, A349T); assay: HPLC glucosyltransferase assay, product peak area; conditions: 250 μM acceptor, 1.5 mM UDP-glucose, 10 mM MgCl2, glycine-NaOH pH 8.6, 37 °C, 2 h
T2 construct: gene Os03g0757500; full-length cDNA in pET21a (NdeI/NotI), E. coli BL21(DE3) pLysS, crude extract; WYJ allele A246, A349
T2 sequence (Q9AUV3 1-457 A349T): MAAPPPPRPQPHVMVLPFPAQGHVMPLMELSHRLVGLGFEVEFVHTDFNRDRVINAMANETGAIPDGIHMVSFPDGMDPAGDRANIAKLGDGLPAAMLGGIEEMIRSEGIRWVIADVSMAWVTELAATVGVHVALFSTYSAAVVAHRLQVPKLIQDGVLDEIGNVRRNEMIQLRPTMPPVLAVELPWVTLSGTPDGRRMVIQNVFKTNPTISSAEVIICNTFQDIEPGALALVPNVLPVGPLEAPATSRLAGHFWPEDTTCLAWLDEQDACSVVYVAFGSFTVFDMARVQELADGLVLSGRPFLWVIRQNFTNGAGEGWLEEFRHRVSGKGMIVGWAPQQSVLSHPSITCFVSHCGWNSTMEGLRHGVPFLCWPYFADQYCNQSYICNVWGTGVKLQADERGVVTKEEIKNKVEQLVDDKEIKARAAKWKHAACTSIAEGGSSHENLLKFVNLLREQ

[3] = substrate: O=c1c(O)c(-c2ccc(O)cc2)oc2cc(O)cc(O)c12; assay: cells, lysate or membranes; conditions: sugar acceptor, UDP-glucose as donor, assay buffer 10 mM MgCl2, glycine-NaOH pH 8.6, 37 °C
[4] = substrate: O=c1ccn([C@@H]2O[C@H](CO[P@@](=O)(O)O[P@@](=O)(O)O[C@H]3O[C@H](CO)[C@@H](O)[C@H](O)[C@H]3O)[C@@H](O)[C@H]2O)c(=O)[nH]1; assay: HPLC glucosyltransferase assay, kinetics; format: biochemical, Oryza sativa; conditions: sugar donor, kaempferol as acceptor, 10 mM MgCl2, glycine-NaOH pH 8.6, 37 °C

Row | Molecule | HPLC glucosyltransferase assay, product peak area (GSA1^WYJ [1]) | HPLC glucosyltransferase assay, product peak area (GSA1^WYJ [2]) | Km [3] | Km [4]
1 | O=c1c(O)c(-c2ccc(O)cc2)oc2cc(O)cc(O)c12 [kaempferol] | the glucosyltransferase activity of GSA1^A246V toward kaempferol and sinapyl alcohol was comparable | the glucosyltransferase activity of GSA1^A349T was comparable to that of GSA1^CG14 | – | –
2 | COc1cc(/C=C/CO)cc(OC)c1O [sinapyl alcohol] | the glucosyltransferase activity of GSA1^A246V toward kaempferol and sinapyl alcohol was comparable | the glucosyltransferase activity of GSA1^A349T was comparable to that of GSA1^CG14 | – | –
3 | GSA1^WYJ (Oryza sativa Japonica Group) (protein, full-length cDNA in pET21a (NdeI/NotI), E. coli BL21(DE3) pLysS, crude extract; WYJ allele A246, A349) MAAPPPPRPQPHVMVLPFPAQGHVMPLMELSHRLVGLGFEVEFVHTDFNRDRVINAMANETGAIPDGIHMVSFPDGMDPAGDRANIAKLGDGLPAAMLGGIEEMIRSEGIRWVIADVSMAWVTELAATVGVHVALFSTYSAAVVAHRLQVPKLIQDGVLDEIGNVRRNEMIQLRPTMPPVLAVELPWVTLSGTPDGRRMVIQNVFKTNPTISSAEVIICNTFQDIEPGALALVPNVLPVGPLEAPATSRLAGHFWPEDTTCLAWLDEQDACSVVYVAFGSFTVFDMARVQELADGLVLSGRPFLWVIRQNFTNGAGEGWLEEFRHRVSGKGMIVGWAPQQSVLSHPSIACFVSHCGWNSTMEGLRHGVPFLCWPYFADQYCNQSYICNVWGTGVKLQADERGVVTKEEIKNKVEQLVDDKEIKARAAKWKHAACTSIAEGGSSHENLLKFVNLLREQ | – | – | 25.54 ± 5.43 µM | 51.06 ± 7.814 µM
